One data set has as its target T1, POP (Homo sapiens, UniProt P48147).
T1 sequence (P48147 1-710): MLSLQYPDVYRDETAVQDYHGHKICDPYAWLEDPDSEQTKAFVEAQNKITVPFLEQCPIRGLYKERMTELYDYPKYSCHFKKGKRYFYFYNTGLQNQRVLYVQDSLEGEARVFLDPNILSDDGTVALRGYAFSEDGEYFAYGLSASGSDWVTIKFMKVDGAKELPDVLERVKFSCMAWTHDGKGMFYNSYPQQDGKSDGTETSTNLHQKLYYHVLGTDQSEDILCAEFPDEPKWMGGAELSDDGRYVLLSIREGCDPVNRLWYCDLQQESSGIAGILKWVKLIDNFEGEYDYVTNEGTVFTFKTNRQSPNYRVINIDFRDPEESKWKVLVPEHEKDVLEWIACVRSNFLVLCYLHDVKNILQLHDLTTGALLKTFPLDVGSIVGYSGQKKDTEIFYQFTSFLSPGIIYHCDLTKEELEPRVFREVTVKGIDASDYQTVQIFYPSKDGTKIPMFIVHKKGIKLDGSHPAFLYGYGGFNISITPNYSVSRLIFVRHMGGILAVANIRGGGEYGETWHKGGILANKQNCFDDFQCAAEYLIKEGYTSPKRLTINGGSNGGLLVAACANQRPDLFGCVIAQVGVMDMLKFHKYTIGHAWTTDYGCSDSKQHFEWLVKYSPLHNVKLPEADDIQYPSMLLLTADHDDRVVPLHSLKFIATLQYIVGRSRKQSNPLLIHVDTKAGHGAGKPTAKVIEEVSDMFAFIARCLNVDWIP
Briefly: POP inhibition constants (Ki) with Tic-Pro-AFC substrate. It is filed as biochemical. As to the method: (§1) For accurate assessment of kinetic parameters, saturating concentrations of substrate were used. For standard curves, dilutions of AFC (7-amino-4-trifluoromethylcoumarin) were prepared in the same assay buffer and corresponding fluorescence was measured.

Another data set deals with T2, APCE/FAP (Homo sapiens, UniProt Q12884).
T2 construct: absence of an about 26-residue amino terminal peptide constituting the transmembrane and intracytosolic domains; from tissue
T2 sequence (Q12884 24-760 limits assumed): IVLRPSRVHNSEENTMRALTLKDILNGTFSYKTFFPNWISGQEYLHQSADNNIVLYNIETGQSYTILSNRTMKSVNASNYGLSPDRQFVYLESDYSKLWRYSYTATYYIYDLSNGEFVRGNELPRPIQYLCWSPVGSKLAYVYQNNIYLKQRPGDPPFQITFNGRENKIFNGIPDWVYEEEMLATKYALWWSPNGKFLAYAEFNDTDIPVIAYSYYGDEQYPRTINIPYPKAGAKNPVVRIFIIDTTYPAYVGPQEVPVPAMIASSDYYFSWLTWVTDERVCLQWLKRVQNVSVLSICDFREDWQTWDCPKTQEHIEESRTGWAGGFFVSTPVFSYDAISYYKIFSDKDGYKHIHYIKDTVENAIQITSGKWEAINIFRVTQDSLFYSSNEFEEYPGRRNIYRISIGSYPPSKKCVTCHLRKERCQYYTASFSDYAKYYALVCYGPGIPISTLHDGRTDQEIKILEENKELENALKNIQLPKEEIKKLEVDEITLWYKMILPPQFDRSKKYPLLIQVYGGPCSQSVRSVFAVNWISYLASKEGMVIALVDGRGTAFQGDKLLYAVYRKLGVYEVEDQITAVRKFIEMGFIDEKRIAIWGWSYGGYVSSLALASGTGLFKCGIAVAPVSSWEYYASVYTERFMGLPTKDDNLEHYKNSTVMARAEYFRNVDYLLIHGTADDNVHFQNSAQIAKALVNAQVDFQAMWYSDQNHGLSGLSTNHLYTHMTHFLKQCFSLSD
Briefly: APCE/FAP inhibition constants (Ki) with Tic-Pro-AFC substrate. It is filed as biochemical. Conditions: substrate Tic-Pro-AFC. As to the method:
as §1

Data set [1] deals with human lung adenocarcinoma epithelial cells. Description: Lung cancer xenografts in nude mice. Format: in vivo. Here is the method: Mice were given a 50 μl injection into each hind leg consisting of human lung adenocarcinoma epithelial cells (2×10^6 cells) suspended in Matrigel™. After ten days the tumors had grown to an estimated 40 mm^3, so M83 treatment was initiated (day 0 in graph). For the M83 treatment group, mice were given a daily intraperitoneal injection of 26.5 micrograms of M83 dissolved in 20 microliters of sterile saline. The mice of the control group were given an intraperitoneal injection of 20 microliters of sterile saline. […] The treatment groups consisted of three mice each with two tumors per mouse.

In the next data set the target is DPPIV (Homo sapiens, UniProt P27487). Briefly: DPPIV inhibition constants (Ki) with Tic-Pro-AFC substrate. It is filed as biochemical. Here is the method:
as §1

A further data set can be described thus: Aqueous solubility. Conditions: result in words. Format: physicochemical. As to the method: The specific POP inhibitor, J94 (acetyl-Lys-Leu-Arg-(L)boroPro (Ki<100 nM)); and the substrate, C95 (acetyl-Arg-AEEA-Gly-Pro-AMC), were designed, synthesized and characterized by us as previously reported. […] The inhibitors (J94 and M83) were dissolved in Hanks Balanced Salt Solution (HBSS; Gibco) at 1 mM and stored at −20° C. The substrate (C95) was dissolved in HBSS at 2.5 mM and stored at 4° C. […] Tic-Pro-AFC, a prolyl-specific fluorescent substrate, was supplied by Vantia (Southampton, England).

Data set [2] deals with HCT116 human colon cancer xenografts. Description: HCT116 human colon cancer xenografts in immunodeficient mice. It is filed as in vivo. Conditions: 28-day treatment period.

Several values for one entry are separate records, joined by “and”; a condition that tells them apart may be missing. Equal entries are not always repeated.

Sequence of DPPIV (P27487 whole entry, species assumed): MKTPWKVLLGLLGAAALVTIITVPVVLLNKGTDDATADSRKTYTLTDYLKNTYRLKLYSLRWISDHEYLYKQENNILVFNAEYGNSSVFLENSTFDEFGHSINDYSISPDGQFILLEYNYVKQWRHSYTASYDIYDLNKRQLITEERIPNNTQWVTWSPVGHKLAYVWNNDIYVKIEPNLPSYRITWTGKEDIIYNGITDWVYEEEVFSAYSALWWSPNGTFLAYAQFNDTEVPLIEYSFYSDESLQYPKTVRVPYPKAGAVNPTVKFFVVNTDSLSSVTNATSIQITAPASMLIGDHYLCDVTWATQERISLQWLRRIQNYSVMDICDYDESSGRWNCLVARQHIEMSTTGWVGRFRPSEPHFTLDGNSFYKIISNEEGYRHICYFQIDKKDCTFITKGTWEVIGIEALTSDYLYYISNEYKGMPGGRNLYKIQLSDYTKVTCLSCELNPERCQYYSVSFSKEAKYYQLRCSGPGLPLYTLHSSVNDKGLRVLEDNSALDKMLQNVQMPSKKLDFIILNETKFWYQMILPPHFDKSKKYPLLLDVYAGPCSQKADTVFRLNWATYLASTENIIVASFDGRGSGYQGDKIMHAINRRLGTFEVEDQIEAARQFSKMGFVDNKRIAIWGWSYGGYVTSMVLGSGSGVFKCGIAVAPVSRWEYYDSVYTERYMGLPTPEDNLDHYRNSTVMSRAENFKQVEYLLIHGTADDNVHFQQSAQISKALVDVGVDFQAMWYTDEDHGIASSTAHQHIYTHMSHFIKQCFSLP

On to `CC(=O)N[C@@H](CCCNC(=N)N)C(=O)NCCOCCOCC(=O)N[C@H](C)C(=O)N1CCC[C@H]1B(O)O` [Compound M83, acetyl-Arg-AEEA-(D)Ala-(L)boroPro], for which, at POP (ratio of Ki values), the “Selectivity Ki (POP) / Ki (APCE/FAP)” value was 1.3. The Ki was 0.0074 µM on POP (substrate Tic-Pro-AFC); 0.0057 µM on APCE/FAP; 6.13 µM and 6.14 µM on DPPIV (substrate Tic-Pro-AFC). Further, the tumor growth result in data set [1] (daily intraperitoneal 26.5 micrograms, nude mice, versus saline control) is recorded as “failed to progress”. Also, the average tumor volume entry in data set [1] (day 28 of treatment versus day zero) is listed as “no greater than on day zero”. Besides, the tumors completely disappeared result in data set [1] (six tumors in treatment group, 28 days) is on record as “one of the six tumors”. For the same compound, the “Selectivity Ki (DPPIV) / Ki (APCE-FAP)” value on DPPIV (ratio of Ki values) worked out at 1076. The “inhibition of DPPIV” value against DPPIV (result in words) is listed as “nor was it inhibited”. Besides, the “solubility in aqueous buffers” value in “Aqueous solubility” is reported as “soluble in aqueous buffers”. In data set [2], the “effectiveness on cancer growth relative to J94” value is listed as “slightly more effective than this”.

One may read the Ki as a dissociation constant, usually derived from enzyme kinetics or from competition with a known ligand. Read a high Ki as weaker binding.

Source of the values: patent publication US9688722B2, “Substrates and inhibitors of prolyl oligopeptidase and methods of use” (The Board of Regents of the University of Oklahoma, priority 2012, dated 2017).
